Reference: ChEMBL document CHEMBL1201862, “PubChem BioAssay data set” (2004)
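Five compound concentrations were applied to cells in 96-well plates for 48 hours; endpoints were derived by simple linear interpolation of the resulting dose-response curve. GI50 = concentration required for 50% inhibition of growth.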 Calls of active or inactive are those of the source. Rule as the data show it: active = GI50 up to about 1.1 µM and inactive = higher.

What was measured:
Assay in all cases: inhibition of tumour cell growth, NCI panel, 48 h
SW-620 = system: SW-620
HCT-15 = system: HCT-15
NCI-H226 = system: NCI-H226
NCI-H23 = system: NCI-H23
SR = system: SR
U-251 = system: U-251
ACHN = system: ACHN
SF-295 = system: SF-295
TK-10 = system: TK-10
M19-MEL = system: M19-MEL
UO-31 = system: UO-31
NCI-H460 = system: NCI-H460
IGROV-1 = system: IGROV-1
SK-MEL-5 = system: SK-MEL-5
KM12 = system: KM12
NCI-H522 = system: NCI-H522
K562 = system: K562
DU-145 = system: DU-145
NCI/ADR-RES = system: NCI/ADR-RES
BT-549 = system: BT-549

Structure (SMILES) | GI50 (SW-620) | GI50 (HCT-15) [µM] | GI50 (NCI-H226) | GI50 (NCI-H23) | GI50 (SR) | GI50 (U-251) | GI50 (ACHN) | GI50 (SF-295) | GI50 (TK-10) | GI50 (M19-MEL) | GI50 (UO-31) | GI50 (NCI-H460) | GI50 (IGROV-1) | GI50 (SK-MEL-5) | GI50 (KM12) | GI50 (NCI-H522) | GI50 (K562) | GI50 (DU-145) | GI50 (NCI/ADR-RES) | GI50 (BT-549)
COc1ccc(CNc2nc3ccc(C(F)(F)F)cc3nc2-c2ccccc2)cc1OC | > 100 µM (inactive) | 25.1 | > 100 µM (inactive) | 78.7 µM (inactive) | 6.64 µM (inactive) | > 100 µM (inactive) | 27.7 µM (inactive) | 42.9 µM (inactive) | 71.6 µM (inactive) | > 100 µM (inactive) | 47.6 µM (inactive) | 21.2 µM (inactive) |  |  |  |  |  |  |  | 
CCCCCCCCCCCCCCCCCC(CCCCCCCCCCCCCCCCC)OP(=O)(O)O | > 100 µM (inactive) | > 100 | > 100 µM (inactive) | > 100 µM (inactive) | 42.9 µM (inactive) | > 100 µM (inactive) | > 100 µM (inactive) | > 100 µM (inactive) | > 100 µM (inactive) | > 100 µM (inactive) | > 100 µM (inactive) | > 100 µM (inactive) | > 100 µM (inactive) | > 100 µM (inactive) | > 100 µM (inactive) | > 100 µM (inactive) | > 100 µM (inactive) |  |  | 
CC(N)Cc1cccc(C(F)(F)F)c1 (stereo not given) | > 100 µM (inactive) | > 100 | > 100 µM (inactive) | > 100 µM (inactive) | > 100 µM (inactive) | > 100 µM (inactive) | > 100 µM (inactive) | > 100 µM (inactive) | > 100 µM (inactive) | > 100 µM (inactive) | > 100 µM (inactive) | > 100 µM (inactive) | > 100 µM (inactive) | > 100 µM (inactive) | > 100 µM (inactive) | > 100 µM (inactive) | > 100 µM (inactive) |  |  | 
[O-]c1c2c(nn1-c1ccccc1)c1ccccc1c[n+]2Cc1ccccc1 | > 100 µM (inactive) | > 100 | > 100 µM (inactive) | > 100 µM (inactive) | > 100 µM (inactive) | > 100 µM (inactive) | > 100 µM (inactive) | > 100 µM (inactive) | > 100 µM (inactive) | > 100 µM (inactive) | > 100 µM (inactive) | > 100 µM (inactive) | > 100 µM (inactive) | > 100 µM (inactive) | > 100 µM (inactive) | 73.6 µM (inactive) | > 100 µM (inactive) |  |  | 
Cn1c2ccccc2c2cc(-c3ccccc3)c3c(c21)C(=O)C=CC3=O | 9.48 µM (inactive) | 15.2 | 15.2 µM (inactive) | 17.2 µM (inactive) | 3.31 µM (inactive) | 18.8 µM (inactive) | 19.8 µM (inactive) | 24 µM (inactive) | 17.1 µM (inactive) | 20.1 µM (inactive) | 19.8 µM (inactive) | 20.6 µM (inactive) | 22.8 µM (inactive) | 28.3 µM (inactive) | 20 µM (inactive) | 17.5 µM (inactive) | 5.31 µM (inactive) | 82.8 µM (inactive) | 41.3 µM (inactive) | 12.4 µM (inactive)
Cc1ccc2c(c1)c(=O)c1c(NCCN(C)C)ccc3nnn2c31 | 1.57 µM (inactive) | 4.18 | 3.02 µM (inactive) | 3.6 µM (inactive) | 1.22 µM (inactive) | 4.23 µM (inactive) | 3.06 µM (inactive) | 1.33 µM (inactive) | 3.95 µM (inactive) | 6.21 µM (inactive) | 3.56 µM (inactive) | 2.67 µM (inactive) | 4.33 µM (inactive) | 3.06 µM (inactive) | 2.45 µM (inactive) | 4.81 µM (inactive) | 2.91 µM (inactive) |  |  | 
C[N+]1(CCNP(=S)(NCC[N+]2(C)Cc3c(ccc4c3OCO4)C3C2c2cc4c(cc2C[C@@H]3O)OCO4)NCC[N+]2(C)Cc3c(ccc4c3OCO4)C3C2c2cc4c(cc2C[C@@H]3O)OCO4)Cc2c(ccc3c2OCO3)C2C1c1cc3c(cc1C[C@H]2O)OCO3 (stereo not given in full) | < 0.00191 µM (active) | < 0.00191 | 2.42 µM (inactive) | < 0.00191 µM (active) | < 0.00191 µM (active) | < 0.00191 µM (active) | < 0.00191 µM (active) | < 0.00191 µM (active) | < 0.00191 µM (active) | < 0.00191 µM (active) | < 0.00191 µM (active) | < 0.00191 µM (active) | < 0.00191 µM (active) | < 0.00191 µM (active) | < 0.00191 µM (active) | < 0.00191 µM (active) | < 0.00191 µM (active) |  |  | 
COC(=O)c1cc2ccccc2c2nc3ccccc3c(Cl)c12 | > 100 µM (inactive) | > 100 |  | > 100 µM (inactive) | 51.8 µM (inactive) | > 100 µM (inactive) | > 100 µM (inactive) | > 100 µM (inactive) | > 100 µM (inactive) | > 100 µM (inactive) |  |  | > 100 µM (inactive) | > 100 µM (inactive) | > 100 µM (inactive) | 32.9 µM (inactive) | > 100 µM (inactive) |  |  | 
CC(O)CCCOC(c1ccccc1)(c1ccccc1)c1ccccc1 (stereo not given) | 16.6 µM (inactive) | 15.4 | 16.1 µM (inactive) | 14.1 µM (inactive) | 20.1 µM (inactive) | 16.4 µM (inactive) | 14.6 µM (inactive) | 13.8 µM (inactive) | 16.6 µM (inactive) | 17 µM (inactive) | 13.7 µM (inactive) | 16.1 µM (inactive) | 15.7 µM (inactive) | 11.8 µM (inactive) | 14.3 µM (inactive) | 13.7 µM (inactive) | 22.9 µM (inactive) | 16.6 µM (inactive) | 11.7 µM (inactive) | 
Nc1ccn(CCO)c(=O)n1 | > 100 µM (inactive) | > 100 | > 100 µM (inactive) |  | > 100 µM (inactive) | > 100 µM (inactive) | > 100 µM (inactive) | > 100 µM (inactive) | > 100 µM (inactive) | > 100 µM (inactive) | > 100 µM (inactive) | > 100 µM (inactive) | > 100 µM (inactive) | > 100 µM (inactive) | > 100 µM (inactive) | > 100 µM (inactive) | > 100 µM (inactive) |  |  | 
CC1=CC[C@@H](C(C)(C)O)C[C@@H]1O | > 5000 µM (inactive) | > 5000 | > 5000 µM (inactive) | > 5000 µM (inactive) | > 5000 µM (inactive) | > 5000 µM (inactive) | > 5000 µM (inactive) | > 5000 µM (inactive) | > 5000 µM (inactive) | > 5000 µM (inactive) | > 5000 µM (inactive) | > 5000 µM (inactive) | > 5000 µM (inactive) | > 5000 µM (inactive) | > 5000 µM (inactive) | > 5000 µM (inactive) | > 5000 µM (inactive) |  |  | 
Cc1cc(NCCCCCCNc2cc(C)nc3cc(N(C)C)ccc23)c2ccc(N(C)C)cc2n1 | 28.6 µM (inactive) | > 100 |  | 25.1 µM (inactive) | 11 µM (inactive) | 28.2 µM (inactive) | 99.8 µM (inactive) | 28.2 µM (inactive) | > 100 µM (inactive) | 27.7 µM (inactive) | 88.7 µM (inactive) | 13.3 µM (inactive) |  | 18.2 µM (inactive) | 11.8 µM (inactive) | 10.6 µM (inactive) | 3.97 µM (inactive) |  |  | 
O=C1C(Cl)C(c2cccc([N+](=O)[O-])c2)N1n1cnc2ccccc2c1=O (stereo not given) | > 100 µM (inactive) | > 100 | > 100 µM (inactive) | > 100 µM (inactive) | 19.1 µM (inactive) | > 100 µM (inactive) | > 100 µM (inactive) | > 100 µM (inactive) | > 100 µM (inactive) | > 100 µM (inactive) | 14.7 µM (inactive) | 50.9 µM (inactive) | > 100 µM (inactive) | > 100 µM (inactive) | > 100 µM (inactive) | 46.3 µM (inactive) | 49.7 µM (inactive) |  |  | 
